# Patent US20230372331A1, “PHARMACEUTICAL COMPOSITION” (ANXO PHARMACEUTICAL CO., LTD., priority 2022, published 2023)
# Counter-ions that a name gives are not always drawn.
# Test: Solubility of cariprazine forms in acetate medium
# Format: physicochemical
# Excerpt: Different drug solubilities of cariprazine HCl and cariprazine base could be the reason to affect the release of cariprazine in the pharmaceutical compositions. […] The release profile of cariprazine in pharmaceutical composition with combo cariprazine base and cariprazine HCl were between pharmaceutical compositions B-752H-TF8-N and C-752H-TF8-N.
compound,measurement,value
"CN(C)C(=O)N[C@H]1CC[C@H](CCN2CCN(c3cccc(Cl)c3Cl)CC2)CC1 [Cariprazine HCl, cariprazine HCl]",solubility in acetate medium (in words),higher solubility in acetate medium than cariprazine base
